{"source": "patent US20250161308A1", "about": "“Methods of Treating Covid-Related Disorders” (priority 2022, published 2025)", "key": {"[1]": {"tested_on": "THP1-differentiated macrophages", "type": "cell-based, human", "set-up": "key to Significant reduction in IL-6 / Significant reduction in TNF-α / Significant reduction in IL-1β: NS: indicates a non-significant reduction in the indicated cytokine; +: indicates a p value<0.05 in Tukey post test; ++: indicates a p value<0.01 in Tukey post test", "conditions": "for Significant reduction in IL-1β / Significant reduction in IL-6 / Significant reduction in TNF-α: 24 hrs LPS"}, "[2]": {"tested_on": "Rat primary cortical neuron cultures", "type": "cell-based", "conditions": "for Significance of neuroprotection vs 1 uM LPS: 24 h LPS"}, "Rat hippocampal neurons [3]": {"tested_on": "Rat hippocampal neurons", "test": "Neurite outgrowth assay", "type": "cell-based"}, "[4]": {"tested_on": "pulmonary LPS-stimulated rats", "test": "Immune cell infiltration in BALF, LPS acute pulmonary inflammation", "type": "in vivo, rat", "conditions": "rat, in vivo"}, "[5]": {"tested_on": "pulmonary LPS-stimulated rats", "test": "Cytokine expression in BALF supernatant (multiplex immunoassay), LPS acute pulmonary inflammation", "type": "in vivo, rat", "conditions": "3 mg/kg IP"}, "[6]": {"tested_on": "LPS-induced cognitive deficit in CD-1 mice", "test": "Rodent LPS model of brain inflammation, T-maze spontaneous alternation", "type": "in vivo, mouse", "conditions": "for Recovery (%) / Spontaneous alternation (%) Mean: LPS 250 μg/kg"}, "[7]": {"tested_on": "bleomycin-induced pulmonary fibrosis in C57BL/6 mice", "test": "Bleomycin-induced pulmonary fibrosis", "type": "in vivo, mouse"}, "Rat hippocampal neurons [8]": {"tested_on": "Rat hippocampal neurons", "test": "Synaptogenesis assay", "type": "cell-based"}, "[9]": {"conditions": "100 mg/kg po BID, right lung homogenate"}}, "note": "Where two headings read alike, the source gives them in different places. Where a SMILES comes first, the peptide text is derived from it. [ ]: non-standard residue; d: D form. The star is where a group is joined. Hexanoyl = CCCCCC(=O)*; Ahx = NCCCCCC(=O)O", "data": [{"compound": "CCCCCC(=O)N[C@@H](Cc1ccc(O)cc1)C(=O)N[C@H](C(=O)NCCCCCC(N)=O)[C@@H](C)CC", "note": "[A19 active metabolite, N-hexanoic-Tyr-Ile-(6)aminohexanoic amide] (Hexanoyl-Tyr-Ile-[Ahx]-NH2)", "values": [{"measurement": "Significant reduction in IL-1β", "setting": "[1]; 0.1 nM", "value": "NS"}, {"measurement": "Significant reduction in IL-6", "setting": "[1]; 0.1 nM", "value": "NS"}, {"measurement": "Significant reduction in TNF-α", "setting": "[1]; 0.1 nM", "value": "NS"}, {"measurement": "Significant reduction in IL-1β", "setting": "[1]; 10 nM", "value": "++ (indicates a p value<0.01 in Tukey post test)"}, {"measurement": "Significant reduction in IL-6", "setting": "[1]; 10 nM", "value": "+ (indicates a p value<0.05 in Tukey post test)"}, {"measurement": "Significant reduction in TNF-α", "setting": "[1]; 10 nM", "value": "+ (indicates a p value<0.05 in Tukey post test)"}, {"measurement": "Significant reduction in IL-1β", "setting": "[1]; 1000 nM", "value": "+ (indicates a p value<0.05 in Tukey post test)"}, {"measurement": "Significant reduction in IL-6", "setting": "[1]; 1000 nM", "value": "++ (indicates a p value<0.01 in Tukey post test)"}, {"measurement": "Significant reduction in TNF-α", "setting": "[1]; 1000 nM", "value": "++ (indicates a p value<0.01 in Tukey post test)"}, {"measurement": "expression of IL-1β (in words)", "setting": "[1]; at at least one tested dose", "value": "significantly reduced the expression of IL-1β and TNF-α"}, {"measurement": "expression of IL-6 (in words)", "setting": "[1]; at at least one tested dose", "value": "significantly reduced the expression of IL-6"}, {"measurement": "expression of TNF-α (in words)", "setting": "[1]; at at least one tested dose", "value": "significantly reduced the expression of IL-1β and TNF-α"}, {"measurement": "Significance of neuroprotection vs 1 uM LPS", "setting": "[2]; 0.1 nM", "value": "+++ (+++ indicates p<0.001)"}, {"measurement": "Significance of neuroprotection vs 1 uM LPS", "setting": "[2]; 1 nM", "value": "++ (++ indicates p<0.01)"}, {"measurement": "Significance of neuroprotection vs 1 uM LPS", "setting": "[2]; 10 nM", "value": "+++ (+++ indicates p<0.001)"}, {"measurement": "Significance of neuroprotection vs 1 uM LPS", "setting": "[2]; 100 nM", "value": "++ (++ indicates p<0.01)"}, {"measurement": "Significance of neuroprotection vs 1 uM LPS", "setting": "[2]; 1 μM", "value": "++ (++ indicates p<0.01)"}, {"measurement": "protection of primary neurons from LPS-stimulated inflammatory toxicity", "setting": "[2]; at at least one dose tested", "value": "protected primary neurons from LPS-stimulated inflammatory toxicity"}, {"measurement": "neurite length / extension of neurites (in words)", "setting": "Rat hippocampal neurons [3]", "value": "promoted the extension of neurites"}, {"measurement": "Significant increase in: Neurite length", "setting": "Rat hippocampal neurons [3]; 10 nM, Table 3 study", "value": "++++ (++++ = p < 0.0001)"}]}, {"compound": "C[C@]12CCC(=O)C[C@@H]1CC[C@@H]1[C@@H]2CC[C@]2(C)[C@@H](O)CC[C@@H]12", "note": "[DHT, alpha-dihydrotestosterone, reference compound]", "values": [{"measurement": "Significant increase in: Neurite length", "setting": "Rat hippocampal neurons [3]", "value": "+ (key: NS = not significant; + = p < 0.05; ++++ = p < 0.0001)"}]}, {"compound": "C[C@@H]1C[C@H]2[C@@H]3CCC4=CC(=O)C=C[C@]4(C)[C@@]3(F)[C@@H](O)C[C@]2(C)[C@@]1(O)C(=O)CO", "note": "[Dex, Dexamethasone]", "values": [{"measurement": "Neutrophils in BALF, reduction vs disease control", "setting": "[4]", "value": "+++ (key: + = >5% reduction in cell count vs disease control; ++ = >25% reduction in cell count vs disease control; +++ = >75% reduction in cell count vs disease control)"}, {"measurement": "Total Leukocytes in BALF, reduction vs disease control", "setting": "[4]", "value": "+++ (key: + = >5% reduction in cell count vs disease control; ++ = >25% reduction in cell count vs disease control; +++ = >75% reduction in cell count vs disease control)"}, {"measurement": "CCL2, significant change in expression in BALF supernatant", "setting": "[5]", "value": "+ (+ = Significant change in cytokine quantification, p < 0.05 by Student's T-test.)"}, {"measurement": "CCL3, significant change in expression in BALF supernatant", "setting": "[5]", "value": "+ (+ = Significant change in cytokine quantification, p < 0.05 by Student's T-test.)"}, {"measurement": "CCL5, significant change in expression in BALF supernatant", "setting": "[5]", "value": "+ (+ = Significant change in cytokine quantification, p < 0.05 by Student's T-test.)"}, {"measurement": "CCL11, significant change in expression in BALF supernatant", "setting": "[5]", "value": "+ (+ = Significant change in cytokine quantification, p < 0.05 by Student's T-test.)"}, {"measurement": "CX3CL1, significant change in expression in BALF supernatant", "setting": "[5]", "value": "+ (+ = Significant change in cytokine quantification, p < 0.05 by Student's T-test.)"}, {"measurement": "CXCL1, significant change in expression in BALF supernatant", "setting": "[5]", "value": "+ (+ = Significant change in cytokine quantification, p < 0.05 by Student's T-test.)"}, {"measurement": "CXCL5, significant change in expression in BALF supernatant", "setting": "[5]", "value": "+ (+ = Significant change in cytokine quantification, p < 0.05 by Student's T-test.)"}, {"measurement": "CXCL10, significant change in expression in BALF supernatant", "setting": "[5]", "value": "+ (+ = Significant change in cytokine quantification, p < 0.05 by Student's T-test.)"}, {"measurement": "EGF, significant change in expression in BALF supernatant", "setting": "[5]", "value": "+ (+ = Significant change in cytokine quantification, p < 0.05 by Student's T-test.)"}, {"measurement": "IFN-γ, significant change in expression in BALF supernatant", "setting": "[5]", "value": "+ (+ = Significant change in cytokine quantification, p < 0.05 by Student's T-test.)"}, {"measurement": "IL-1α, significant change in expression in BALF supernatant", "setting": "[5]", "value": "+ (+ = Significant change in cytokine quantification, p < 0.05 by Student's T-test.)"}, {"measurement": "IL-1β, significant change in expression in BALF supernatant", "setting": "[5]", "value": "+ (+ = Significant change in cytokine quantification, p < 0.05 by Student's T-test.)"}, {"measurement": "IL-5, significant change in expression in BALF supernatant", "setting": "[5]", "value": "+ (+ = Significant change in cytokine quantification, p < 0.05 by Student's T-test.)"}, {"measurement": "IL-6, significant change in expression in BALF supernatant", "setting": "[5]", "value": "+ (+ = Significant change in cytokine quantification, p < 0.05 by Student's T-test.)"}, {"measurement": "IL-10, significant change in expression in BALF supernatant", "setting": "[5]", "value": "+ (+ = Significant change in cytokine quantification, p < 0.05 by Student's T-test.)"}, {"measurement": "IL-12p70, significant change in expression in BALF supernatant", "setting": "[5]", "value": "+ (+ = Significant change in cytokine quantification, p < 0.05 by Student's T-test.)"}, {"measurement": "IL-13, significant change in expression in BALF supernatant", "setting": "[5]", "value": "+ (+ = Significant change in cytokine quantification, p < 0.05 by Student's T-test.)"}, {"measurement": "IL-17A, significant change in expression in BALF supernatant", "setting": "[5]", "value": "+ (+ = Significant change in cytokine quantification, p < 0.05 by Student's T-test.)"}, {"measurement": "TNF-α, significant change in expression in BALF supernatant", "setting": "[5]", "value": "+ (+ = Significant change in cytokine quantification, p < 0.05 by Student's T-test.)"}]}, {"compound": "CC12CC3CC(C)(C1)CC(N)(C3)C2", "note": "[Memantine, reference compound]", "values": [{"measurement": "Recovery (%)", "setting": "[6]; 0.1 mg/kg i.p. 14 days", "value": 76, "unit": "%"}, {"measurement": "Spontaneous alternation (%) Mean", "setting": "[6]; 0.1 mg/kg i.p. 14 days", "value": 63.6, "unit": "%"}, {"measurement": "Spontaneous alternation (%) Mean", "setting": "[6]; 0.1 mg/kg i.p. 14 days, listed as memantine", "value": 64, "unit": "%"}, {"measurement": "Recovery (%)", "setting": "[6]; 1 mg/kg i.p. 14 days", "value": 38, "unit": "%"}, {"measurement": "Spontaneous alternation (%) Mean", "setting": "[6]; 1 mg/kg i.p. 14 days", "value": 54.3, "unit": "%"}, {"measurement": "Spontaneous alternation (%) Mean", "setting": "[6]; 1 mg/kg i.p. 14 days, listed as memantine", "value": 54, "unit": "%"}, {"measurement": "significance of reversal of LPS-induced cognitive deficit (in words)", "setting": "[6]; T-maze", "value": "significant at both doses"}]}, {"compound": "Cc1ccc(=O)n(-c2ccccc2)c1", "note": "[Pirfenidone, reference compound]", "values": [{"measurement": "Right Lung Weight, improvement versus disease control", "setting": "[7]; 100 mg/kg po BID, day 21", "value": "+ (+ => 5-25% improvement v disease control)"}, {"measurement": "Collagen, improvement versus disease control", "setting": "[7]; [9]", "value": "++ (++ => 26-50% improvement v disease control)"}, {"measurement": "TGF-Beta, improvement versus disease control", "setting": "[7]; [9]", "value": "+++ (+++ => 51-100% improvement v disease control)"}, {"measurement": "protection against bleomycin-induced increases in TGF-β (in words)", "setting": "[7]; all doses, day 21", "value": "significantly protected against bleomycin-induced increases in TGF-β"}, {"measurement": "protection against body weight loss (in words)", "setting": "[7]; all treatment groups", "value": "did not protect against body weight loss"}]}, {"compound": "HGF: hepatocyte growth factor, used as a positive control at 5 ng/ml", "values": [{"measurement": "synapse counts (in words)", "setting": "Rat hippocampal neurons [8]", "value": "increase both neurite length and synapse count"}, {"measurement": "Significant increase in: Synapses", "setting": "Rat hippocampal neurons [8]; 5 ng/ml, Table 4 study", "value": "++++ (++++ = p < 0.0001)"}, {"measurement": "neurite length / extension of neurites (in words)", "setting": "Rat hippocampal neurons [3]", "value": "increase both neurite length and synapse count"}, {"measurement": "Significant increase in: Neurite length", "setting": "Rat hippocampal neurons [3]; 5 ng/ml, Table 4 study", "value": "+++ (+++ = p < 0.0005)"}]}]}
